# Results from patent EP0462621A2, “Use of particular compounds for manufacture of pharmaceutical formulations for treatment against various parasites, mycoplasmas, other indications and other infections” (Prendergast, Patrick Thomas, priority 1990, dated 1991).
# Assays:
# [1] = tested on: human mononuclear cells; assay: Mixed leukocyte culture (MLC) reaction; assay type: cell-based
# Procedure: T and B lymphocytes from normal human donors were incubated for 30 minutes at various dose levels of the compounds indicated. The lymphocytes were added in triplicate wells in gentamicin and phytohemagglutinin (PHA) (a T cell mitogen), pokeweed mitogen (PWM) (a B cell mitogen) and allogeneic mononuclear cells (mixed leukocyte cultures; MLC) or media containing the above additives. The lymphocyte blastogenesis assay is described in detail below.
# Mixed leukocyte culture (MLC) reactions may be used to evaluate the ability of human mononuclear cells to recognize and immunologically react to human histocompatibility antigen (measurement of the ability of the cells to mount a primary immune response to an antigen). Cultures of one set of human mononuclear cells were reacted with mononuclear cells from an unrelated donor in lymphocyte blastogenesis assays and the proliferation of the first set of cells was quantitated. The results are presented in Charts la(e) (v) and la(e) (vi) (Figs. 5 and 6). Again, as with lymphocyte blastogenesis with mitogens, the MLC was run in replicates of three and a mean value obtained.
# • 1. Mononuclear cells are separated from whole blood by differential centrifugation using a synthetic separation medium, or are thawed from a cryopreserved preparation. The cells are washed and resuspended in media (RPMI - 1640, L-Glutamine 2mM, Herpes Buffer 25mM, Gentamicin 50 ug/ml, Human AB Serum-heat inactivated (56°, 30°) 20%). • 2. A viable cell count is determined. • 3. Cell concentration is adjusted to 2 x 10^6 /ml in media. • 4. The cell suspension is added to wells of a 96-well flat bottom plate in 0.1 ml aliquots (2 x 10^5 cells). • 5. The selected mitogens and/or antigens (in media without serum) are added to the cells in the wells also in 0.1 ml aliquots. • 6. The cultures are incubated for 3-7 days (depending upon the mitogen or antigen) at 37° C in a humidified 5% C02 atmosphere. • 7. […] The vials are counted in a liquid scintillation counter for one minute where the amount of incorporated ^3HTdR is determined.
# [2] = tested on: Monocytes; assay: Experiment la(f): monocyte spontaneous migration (agarose droplet); assay type: cell-based, human; conditions: for Total Area (mm^2) Migration: Table Ia(f)(ii)
# Procedure: Monocytes from each human donor were incubated for 30 minutes with three different dose levels of compound la in triplicate. These cells were added to agarose and droplets of agarose containing cells were added to small chambers. A chemotaxis agent was added to induce enhanced migration of the mononuclear cells. The detailed assay procedures are described below.
# Cell migration patterns of triplicates within 30% of each other were generally accepted.
# • 1. Add 6 ml Phosphate Buffered Saline (PBS) 2X to 7 ml of Percoll. • 2. Add mixture to 15 ml polycarbonate centrifuge tubes (Sorvall ^*03243, 18 x 100 mm, pt. ^*00770 50/box, w/caps). ' • 3. Centrifuge tubes at 21,000 x g for 45 minutes (Sorvall, RC2-B centrifuge w/SS-34 rotor, 34 fixed angle, -15,000 rpm w/Drake off @ 4 C). Percoll gradient is good for two weeks. • 4. Mononuclear cells are separated from whole blood by differential centrifugation using a synthetic separation medium. • 5. Cells are washed 2X with Basal Salt Solution (BSS). • 6. Resuspend cells in BSS + 10% BCS, then add mixture to 50 ml centrifuge tubes containing 30-40 ml of Bovine Calf Serum (BCS) and centrifuge at 400 x g for 10 minutes. • 7. Resuspend cells in BSS without BCS. • 8. Determine viable cell number. • 9. Adjust concentration of cells to […]. • 10. Carefully layer 2 ml of cells on top of Percoll gradient. Centrifuge tubes at 100 x g for 20 minutes at 4°C with brake off. • 11. Monocyte layer is harvested with a pasteur pipet and aliquoted into a 50 ml centrifuge tube. Dead cells are in the top band. Monocytes are about 5 ml above middle gradient. Lymphocytes are about 5 ml below middle gradient. […] Wash cells 3X in BSS without BCS. • 13. Resuspend cells in desired media. • 14. Perform esterase stain on monocyte cell suspension to determine ratio of monocytes. Ratio ranges from 50 - 80%.
# • 1. A 0.4% solution of Agarose (Seakem HE) and distilled H20 is prepared, aliquoted into 1 dram vials, autoclaved and stored at 4° C until used. • 2. A suspension of […] cells in Media 199 2X containing glutamine 2mM, gentamicin 50 µg/ml and bovine calf serum-heat inactivated (56° C, […]) 20%, is combined with an equal amount of 0.4% Agarose. • 3. A 5 µl droplet of cell/agarose mixture is added to the centre of a Sterilin plate (Surrey, England). • 4. A 2 µl droplet of agarose/media mixture is added 3-5mm to one side of the cell/agarose droplet and a 2 µl droplet of agarose/chemo-attractant (N-formyl-L-methionyl-L-Leucyl-L-Phenylalanine 10^-4 M(F-Met-Leu-Phe)) is added 3-5mm to the other side of the cell/agarose droplet. • 5. The droplets are allowed to solidify, after which 0.5 ml of RPMI-1640 containing glutamine 2mM, gentamicin 50, µg/ml and bovine calf serum 10% is added to the well. A cover slip is then placed over the well. • 6. The plate is incubated at 37° C, 5% C02/air humified for approximately 18 hours. • 7. The plate is removed from the incubator and the distance the cells have moved towards the media control and the chemoattractant droplets is traced and measured.
# [3] = Case study: AIDS patient with hairy leukoplakia, IPA oral fluid dose or mouth wash; assay type: in vivo, human
# Description: When the indication reappeared, following a period of time (several days), the administration of the compound gave further relief.
# [4] = tested on: T.b. brucei, T.b. gambiense and T.b. rhodesiense; assay: Procyclic trypomastigote (TRY) in-vitro screen; assay type: cell-based; also: key: - no/poor activity,; + fair/moderate activity,; ++ good/excellent activity
# Procedure: Primary screening for new trypanocides has made extensive use of rodent systems, in which host survival time is a simple indicator of drug activity. In-vitro screens have used a variety of trypomastigote types (see Table 3, below). […] Most early in-vitro screens employed a short test in which bloodstream trypomastigotes were isolated from an infected rodent and maintained for up to 24 h in a simple drug-containing media. Two significant modifications of this technique include maintaining isolated bloodstream trypomastigotes in drug-containing media for 3-4 hours at 37° C in micro-titre plates and their subsequent viability assessed by the uptake of radiolabelled precursors or motility and infectivity to mice.
# In-vitro and in-vivo models were used to test activities of a selection of many compounds. Those activities are summarized in Tables 1-3, showing variation between systems and species. Activities measured in the MP mo and HM mo models have shown the best correlation with results obtained in hamster and mouse models.
structure (smiles),measurement,setting,value
"CC(C)=CCNc1ncnc2c1ncn2[C@@H]1O[C@H](CO)[C@@H](O)[C@H]1O [IPA, N^6-(Δ^2-isopentenyl) adenosine]",reduction in MLC reactivity,[1]; 1 µM,50%
same,MLC reactivity,[1]; 10 µM,No effect
same,MLC reactivity,[1]; 100 u.M,slight increase
same,reduction in spontaneous migration,[2]; 30 µM,15%
same,spontaneous migration,[2]; 0.1 - 0.3 µM,Enhanced spontaneous migration
same,reduction in the ability of the monocytes to spontaneously migrate,[2]; 100 - 1000 µM,22-37%
same,Total Area (mm^2) Migration,"[2]; IPA 5 µM, media 9085",7952 mm^2
same,Total Area (mm^2) Migration,"[2]; IPA 10 µM, media 9085",6846 mm^2
same,Total Area (mm^2) Migration,"[2]; IPA 15 µM, media 9085",6300 mm^2
same,Total Area (mm^2) Migration,"[2]; IPA 20 µM, media 8732",6804 mm^2
same,Total Area (mm^2) Migration,"[2]; IPA 25 µM, media 8732",6435 mm^2
same,Total Area (mm^2) Migration,"[2]; IPA 30 µM, media 8732",5795 mm^2
same,relief of hairy leukoplakia,[3],complete relief
same,time to relief of the indication,[3],within seven days
same,"activity, procyclic TRY",[4],+
